Entries after “also recorded” stand apart in the source; their conditions may differ.

From paper PMC3539664, “Convergent synthesis and evaluation of ^18F-labeled azulenic COX2 probes for cancer imaging” (Frontiers in Oncology, 2013) come the findings set out here.

Data set [1] in a line: Biodistribution by gamma counting of tissues after imaging. It counts as in vivo. The following applies: non-fasted tumor-bearing mice (n = 3), 150 min post injection (Figure 5). An excerpt: After the imaging session, the mice were euthanized and hearts, muscles, blood, livers, spleens, kidneys, stomachs, brains, intestines, tumors, and lungs were retrieved. The tissues were weighed and assessed for ^18F radioactivity using a gamma counter (CRC-15W, Capintec, Ramsey, NJ, USA).

The next data set has as its system C57MG tumors. The data set can be described thus: In vivo microPET/CT imaging of COX2 in tumor-bearing mouse model. More on the design: species or system mice. On the procedure:
The experimental protocol for animal imaging was approved by the Vanderbilt Medical Center Institutional Animal Care and Use Committee. Nude mice 6–8 weeks of age (n = 8, from Jackson Laboratory, Bar Harbor, ME, USA) were implanted subcutaneously under anesthesia (isoflurane mixed […]) with 1.0 × 10^6 C57MG cells in the mammary fat pad. The progress of tumor growth was monitored via every-other-day measurement of tumor size and animal weight. When the tumors reached approximately 4 mm in diameter, in vivo PET imaging was performed.
Positron emission tomography imaging was performed using the microPET Focus 220 (Siemens Pre-clinical, Knoxville, TN, USA) in a static acquisition mode for 30 min at 60, 120, and 150 min after injection of ^18F-COX2 probe 13 (150–200 μCi, 100–130 μL) into awake, non-fasted mice (n = 8) via the tail vein. To obtain whole-body scans, mice were placed in a supine position. The data were acquired in a 3-D mode with an axial span of approximately 8 cm. During the scanning, the animals were anesthetized using isoflurane and the temperature inside the scanner was maintained at 30°C using a pad connected to a circulating warm water bath. After PET imaging, a CT image was acquired using the microCAT II (Siemens Pre-clinical, Knoxville, TN, USA) using the same animal holder with the subjects maintained under anesthesia throughout, and then the mice were immediately euthanized upon completion of the CT scan. PET images were reconstructed using the iterative MAP reconstruction algorithm with 18 iterations and a beta smoothing value of 0.001 into 128 × 128 × 95 slices with a voxel size of 0.475 mm × 0.475 mm × 0.796 mm. The PET and CT images were co-registered using the imaging tool AMIDE ([Loening and Gambhir, 2003]).

In the case of `Cc1csc(Cc2c3cccccc-3c(C(=O)c3ccc([18F])cc3)c2C)n1` [compound 13], the “Biodistribution: tissue uptake (% injection dose/g tissue)” value in data set [1] is reported as “the probe accumulated in the tumor; also recorded: highest uptake was detected in the liver, followed by the intestine”. The “Hepatic uptake of the probe (PET)” value in the data set with C57MG tumors (non-fasted C57MG tumor-bearing mice, i.v., PET imaging) is recorded as “predominant hepatic uptake”. For the same molecule, the “Bone signal / in vivo defluorination (PET)” value in the data set on C57MG tumors (non-fasted C57MG tumor-bearing mice, i.v., up to 2.5 h post injection) is recorded as “negligible signal in the bone; also recorded: no defluorination of the probe in vivo”. Moreover, the “Tumor accumulation and retention of the probe (PET, PET/CT)” value in the data set with C57MG tumors (non-fasted nude mice with C57MG mammary fat pad tumors, i.v. tail vein, static whole-body scan 150 min after administration, vs background p < 0.05) was “significant accumulation in the tumor”.
